# Source: PMC5896570 (SLAS discovery : advancing life sciences R & D, 2016)
# Several values for one entry are separate records, joined by “and”; a condition that tells them apart may be missing. Equal entries are not always repeated. Where two headings read alike, the source gives them in different places.
# What was measured:
# full-length human A2AR [1] = target: T1, full-length human A2AR (Homo sapiens, UniProt P29274); type: binding; details: mean ± SEM, n=16; for Kd: read-out: Kinetic KD
# full-length human A2AR [2] = target: T1, full-length human A2AR; type: binding; details: for receptor-ligand complexes formed at equilibrium: saturation
# [3] = analytical solution, fixed α 5.6%
# [4] = numerical solution, fixed KD 22 nM
# T1 sequence (P29274 whole entry): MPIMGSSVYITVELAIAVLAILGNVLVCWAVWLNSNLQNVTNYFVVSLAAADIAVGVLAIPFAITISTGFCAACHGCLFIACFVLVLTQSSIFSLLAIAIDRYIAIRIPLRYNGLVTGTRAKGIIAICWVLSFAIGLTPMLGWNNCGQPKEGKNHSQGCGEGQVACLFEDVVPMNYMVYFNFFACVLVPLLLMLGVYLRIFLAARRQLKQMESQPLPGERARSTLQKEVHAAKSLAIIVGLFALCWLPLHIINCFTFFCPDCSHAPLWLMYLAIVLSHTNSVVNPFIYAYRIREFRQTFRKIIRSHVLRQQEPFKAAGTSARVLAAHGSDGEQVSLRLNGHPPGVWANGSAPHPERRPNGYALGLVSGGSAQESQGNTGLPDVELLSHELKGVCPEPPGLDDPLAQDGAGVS
smiles,measurement,setting,value
"CCNC(=O)[C@H]1O[C@@H](n2cnc3c(N)nc(NCCc4ccc(CCC(=O)NCCNC(=S)Nc5ccc6c(c5)C(=O)OC6(c5ccc(O)cc5)c5ccc(O)cc5)cc4)nc32)[C@H](O)[C@@H]1O [FITC-APEC, 2-[2-[4-[2-[2-[1,3-Dihydro-1,1-bis (4-hydroxyphenyl)-3-oxo-5-isobenzofuranthioureidyl]ethylaminocarbonyl]ethyl]phenyl]ethylamino]-5′--ethylcarboxamidoadenosine]",Residence time,full-length human A2AR [1]; [3],22 ± 1.5 min
same,koff,full-length human A2AR [1]; [3],7.7 ± 0.5 x10^−4 s^−1
same,kon,full-length human A2AR [1]; [3],1.5 ± 0.2 x10^4 (M s)^−1
same,Residence time,full-length human A2AR [1]; [4],47 ± 3.8 min
same,koff,full-length human A2AR [1]; [4],3.6 ± 0.3 x10^−4 s^−1
same,α (Bmax/RT),full-length human A2AR [1]; [4],6.8 ± 1.1%
same,Kd,full-length human A2AR [1]; [3],73 ± 15 nM
same,Kd,full-length human A2AR [1]; [4],22 ± 2.3 nM
same,Bmax,"full-length human A2AR [2]; equilibrium, Scatchard analysis, ± SEM, n=5",~ 5.6 % of RT and 5.6 ± 0.4 % of RT
same,receptor-ligand complexes formed at equilibrium,full-length human A2AR [2]; receptor concentration 160 nM,9 nM
same,receptor-ligand complexes formed at equilibrium,full-length human A2AR [2]; receptor concentration 480 nM,25 nM
